Values of other authors, collected in patent publication US8431165B2, “Medicament for treatment of cancer and other diseases” (Swing Aerobics Licensing, Inc., priority 2004, dated 2013).

Details: adult men and women, mean+SD

## CC/C=C\C/C=C\C/C=C\CCCCCCCC(=O)O [alpha-linolenic acid]
  average estimated conversion of alpha-linolenic acid to docosahexaenoic acid: 3.6±3.8%
  average estimated conversion of alpha-linolenic acid to n-3 LC-PUFA metabolites: 17.3±12.8%
